According to patent US7238213B2, “Cell-based assays employing voltage and calcium dyes” (priority 2001, dated 2007):
Converted amounts (≈) assume the structure as drawn. “Also recorded” adds a separate entry of the source. Like-named read-outs stand apart in the source and are kept apart here.

Assays:
[1] = Solubility in water of dye quenchers; details: for solubility: water, Solubility in Water
GCGR = molecular target: T1, GCGR (Homo sapiens, UniProt P47871); experiment: CNG channel voltage dye assay with quencher dyes, cell line ASC0089 (GCGR); type: cell-based; details: for Cell response to glucagon in the presence of the quencher dye: ASC0089, HLB30602 5 μM, 1 h at room temperature, FIG. 19; for Effect of quencher on glucagon potency: compared with other quenchers and MDC dye kit, FIG. 21, 22
T1 construct: expressed in transfected cells

A2B = molecular target: T2, A2B (Homo sapiens, UniProt P29275); experiment: CNG channel voltage dye assay with quencher dyes, cell line ASC0097 (A2B); type: cell-based; details: FIG. 20
T2 construct: endogenous in cells
T2 sequence (P29275 1-332): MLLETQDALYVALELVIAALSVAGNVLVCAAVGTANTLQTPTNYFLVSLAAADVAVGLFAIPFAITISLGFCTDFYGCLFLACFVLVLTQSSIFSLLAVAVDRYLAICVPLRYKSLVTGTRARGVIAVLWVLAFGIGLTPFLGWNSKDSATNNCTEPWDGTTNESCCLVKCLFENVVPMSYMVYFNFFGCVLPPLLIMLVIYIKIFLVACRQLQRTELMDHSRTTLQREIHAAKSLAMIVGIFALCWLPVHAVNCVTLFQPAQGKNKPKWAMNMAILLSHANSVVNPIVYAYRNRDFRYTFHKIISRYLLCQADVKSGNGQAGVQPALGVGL

cell membranes = experiment: Effect of EGTA in extracellular assay solution on baseline voltage dye fluorescence; type: cell-based; details: CNG channel without pore mutation
20 ligand-receptor pairs = details: quenchers for fluorescent voltage dyes
DP = molecular target: T3, DP (Homo sapiens, UniProt Q13258); experiment: CNG channel voltage dye assay with quencher dyes, cell line ASC0093 (DP); type: cell-based
T3 construct: expressed in transfected cells; host or cells: cell line ASC0093 (CNG sensor line)
T3 sequence (Q13258 1-359): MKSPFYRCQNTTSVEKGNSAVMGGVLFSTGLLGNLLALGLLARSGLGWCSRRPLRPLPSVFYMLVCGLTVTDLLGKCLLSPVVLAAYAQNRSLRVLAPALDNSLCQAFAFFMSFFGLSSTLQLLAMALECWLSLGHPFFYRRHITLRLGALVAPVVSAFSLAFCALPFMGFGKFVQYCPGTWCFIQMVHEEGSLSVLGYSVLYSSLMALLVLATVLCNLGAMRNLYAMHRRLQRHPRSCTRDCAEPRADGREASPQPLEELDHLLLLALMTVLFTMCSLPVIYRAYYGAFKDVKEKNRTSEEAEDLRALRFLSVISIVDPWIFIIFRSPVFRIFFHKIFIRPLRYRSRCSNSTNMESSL

[2] = CNG channel voltage dye assay with quencher dyes, cell line ASC0097 (EP2); details: NY & H30602
[3] = system: stably transformed cells expressing a CNG channel gene; experiment: CNG channel endpoint assay, 384 well, FLEXstation; type: cell-based; details: 30 μM, 90 minutes after stimulation
Protocol: The CNG channel assay can also be used to perform endpoint assays. Decay of fluorescence responses results from desensitization of CNG channel was effectively removed by chelating extracellular calcium by EGTA and supplementing inhibitors of phosphodiesterase. Stably transformed cells expressing a CNG channel gene were seeded into 384 well plates and grown as described in previous examples. Forskolin was dissolved at a final concentration of 30 μM in Compound Buffer containing EGTA. Fluorescence intensity values of cells incubated with forskolin or with Compound Buffer only were read using FLEXstation (Molecular Devices) at different time points after forskolin stimulation.

[4] = CNG channel voltage dye assay with quencher dyes, cell line ASC0089 (Cyclase)
tyramine receptor = experiment: Tyramine receptor activation, CNG channel assay with membrane potential dye; type: cell-based; details: HEK293 transient, FIG. 16
Protocol: In this example, activation of the tyramine receptor was examined using the CNG channel assay and compared with calcium fluorescence assays using Gα16 and Gαqs. Similar amounts of plasmids comprising CNG channel, Gα16 or Gαqs were used for transient expression in HEK293 cells also transiently expressing tyramine receptor. Calcium assays were performed following the protocol provided by Molecular Devices. For each concentration of tyramine, three recordings were made to obtain an average response in cells expressing Gα16, Gαqs and CNG channel respectively.

VIP2R = molecular target: T4, VIP2R (Homo sapiens, UniProt P41587); experiment: CNG channel voltage dye assay with quencher dyes, cell line ASC0145 (VIP2R); type: cell-based; details: ASC0145, compared with MDC dye kit R-8034, FIG. 23
T4 construct: expressed in transfected cells; host or cells: cell line ASC0145 (CNG sensor line)
T4 sequence (P41587 24-438): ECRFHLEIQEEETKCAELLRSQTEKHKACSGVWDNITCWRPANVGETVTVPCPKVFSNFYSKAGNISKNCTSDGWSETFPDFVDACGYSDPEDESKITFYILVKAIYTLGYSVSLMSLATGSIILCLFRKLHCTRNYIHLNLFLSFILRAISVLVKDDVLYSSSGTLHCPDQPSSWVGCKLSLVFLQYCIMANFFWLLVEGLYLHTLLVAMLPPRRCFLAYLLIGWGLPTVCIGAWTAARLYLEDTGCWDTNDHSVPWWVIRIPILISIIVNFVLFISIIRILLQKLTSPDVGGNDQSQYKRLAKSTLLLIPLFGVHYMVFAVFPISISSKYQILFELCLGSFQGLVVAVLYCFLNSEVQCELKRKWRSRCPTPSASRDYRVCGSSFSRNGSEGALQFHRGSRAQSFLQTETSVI

GIPR = molecular target: T5, GIPR (Homo sapiens, UniProt P48546); experiment: CNG channel voltage dye assay with quencher dyes, cell line ASC0133 (GIPR); type: cell-based; details: ASC0133, compared with MDC dye kit R-8034, FIG. 24
T5 construct: expressed in transfected cells; host or cells: cell line ASC0133 (CNG sensor line)
T5 sequence (P48546 22-466): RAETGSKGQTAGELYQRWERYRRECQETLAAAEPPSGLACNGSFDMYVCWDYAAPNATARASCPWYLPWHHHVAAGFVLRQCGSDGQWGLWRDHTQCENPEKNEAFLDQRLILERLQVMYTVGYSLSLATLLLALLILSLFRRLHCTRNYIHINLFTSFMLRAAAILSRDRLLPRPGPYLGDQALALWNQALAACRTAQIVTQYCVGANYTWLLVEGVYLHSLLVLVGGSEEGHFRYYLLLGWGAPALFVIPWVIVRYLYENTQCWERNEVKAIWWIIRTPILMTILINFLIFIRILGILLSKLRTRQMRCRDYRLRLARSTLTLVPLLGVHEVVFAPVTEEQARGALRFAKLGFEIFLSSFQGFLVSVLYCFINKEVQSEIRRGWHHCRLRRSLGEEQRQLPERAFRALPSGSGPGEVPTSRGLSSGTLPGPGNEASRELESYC

MC1R = MC1R (Homo sapiens, UniProt Q01726); details: cell line ASC0179
MC1R, sequence (Q01726 whole entry, species assumed): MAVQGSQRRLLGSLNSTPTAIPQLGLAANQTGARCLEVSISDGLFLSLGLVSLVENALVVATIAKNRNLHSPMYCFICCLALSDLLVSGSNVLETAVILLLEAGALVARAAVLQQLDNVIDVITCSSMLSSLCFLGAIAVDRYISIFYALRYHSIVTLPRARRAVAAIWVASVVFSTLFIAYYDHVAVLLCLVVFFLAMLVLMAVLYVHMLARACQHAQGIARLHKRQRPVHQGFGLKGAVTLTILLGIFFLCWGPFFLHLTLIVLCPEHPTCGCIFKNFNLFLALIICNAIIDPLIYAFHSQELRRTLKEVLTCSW

T1 sequence (P47871 26-477, species assumed): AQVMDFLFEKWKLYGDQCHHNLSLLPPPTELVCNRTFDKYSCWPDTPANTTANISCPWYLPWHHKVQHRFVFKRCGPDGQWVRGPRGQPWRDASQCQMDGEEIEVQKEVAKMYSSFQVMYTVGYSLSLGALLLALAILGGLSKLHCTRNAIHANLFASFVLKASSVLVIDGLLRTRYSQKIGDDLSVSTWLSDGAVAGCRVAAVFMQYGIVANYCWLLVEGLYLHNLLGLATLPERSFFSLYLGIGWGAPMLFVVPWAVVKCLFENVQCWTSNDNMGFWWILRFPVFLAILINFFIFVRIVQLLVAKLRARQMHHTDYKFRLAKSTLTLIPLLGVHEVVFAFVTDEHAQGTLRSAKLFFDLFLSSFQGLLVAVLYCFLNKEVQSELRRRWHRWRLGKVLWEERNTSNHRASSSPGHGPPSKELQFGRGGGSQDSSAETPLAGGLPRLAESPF

## O=S(=O)([O-])c1cc(O)c2c(/N=N/c3ccc(Nc4ccccc4)c4c(S(=O)(=O)[O-])cccc34)cc(S(=O)(=O)[O-])cc2c1.[Na+].[Na+].[Na+] [Acid Blue 92]
[1]
  Solubility in Water: 40 mg/mL

## O=S(=O)([O-])c1cccc(N=Nc2ccc(N=Nc3ccc(Nc4ccccc4)c4c(S(=O)(=O)[O-])cccc34)c3ccccc23)c1.[Na+].[Na+] [Acid Blue 113]
[1]
  Solubility in Water: 40 mg/mL

## CCN(CC)c1ccc(C(=C2C=CC(=[N+](CC)Cc3cccc(S(=O)(=O)[O-])c3)C=C2)c2ccc(N(CC)Cc3cccc(S(=O)(=O)[O-])c3)cc2)cc1.[Na+] [Acid Violet 17]
GCGR
  Cell response to glucagon in the presence of the quencher dye: abolished
[1]
  Solubility in Water: 30 mg/mL

## O.O=C1c2ccccc2C(=O)c2c1cc(S(=O)(=O)[O-])c(O)c2O.[Na+] [Alizarin Red S monohydrate]
[1]
  Solubility in Water: 20 mg/mL

## CC(=O)Nc1ccc(S(=O)(=O)[O-])c2cc(S(=O)(=O)[O-])c(N=Nc3ccc(N=Nc4ccc(S(=O)(=O)[O-])cc4)c4ccc(S(=O)(=O)[O-])cc34)c(O)c12.[Na+].[Na+].[Na+].[Na+] [Brilliant Black BN]
[1]
  Solubility in Water: 30 mg/mL

## O=S1(=O)OC(c2cc(Cl)c(O)c(Br)c2)(c2cc(Cl)c(O)c(Br)c2)c2ccccc21 [Bromochlorophenol Blue]
[1]
  Solubility in Water: 20 mg/mL (≈ 34.4 mM)

## O=S1(=O)OC(c2cc(Br)c(O)c(Br)c2)(c2cc(Br)c(O)c(Br)c2)c2ccccc21 [Bromophenol Blue]
GCGR; FIG. 21
  Interference of quencher with response to glucagon stimulation: interfered
A2B
  Suitability of quencher for assay of adenosine receptor A2B responses to NECA: reduced NECA response without affecting NECA potency
[1]
  Solubility in Water: 30 mg/mL (≈ 44.8 mM)

## O=c1c(Br)cc2c(-c3ccccc3S(=O)(=O)O)c3cc(Br)c(O)c(O)c3oc-2c1O [Bromopyrogallol Red]
[1]
  solubility: 5 mg/mL (≈ 8.96 mM)

## O=S1(=O)OC(c2ccc(O)c(Cl)c2)(c2ccc(O)c(Cl)c2)c2ccccc21 [Chlorophenol Red]
[1]
  Solubility in Water: 30 mg/mL (≈ 70.9 mM)

## O=C(O)CN(CCOCCOCCN(CC(=O)O)CC(=O)O)CC(=O)O [EGTA]
Cell membranes
  fluorescence increase over baseline: about 40%

## Cc1cc(-c2ccc(/N=N/c3c(S(=O)(=O)O)cc4cc(S(=O)(=O)O)cc(N)c4c3O)c(C)c2)ccc1/N=N/c1c(S(=O)(=O)O)cc2cc(S(=O)(=O)O)cc(N)c2c1O [HLB30702 (Trypan Blue), Trypan Blue]
GCGR; FIG. 21
  Interference of quencher with response to glucagon stimulation: interfered
A2B
  Suitability of quencher for assay of adenosine receptor A2B responses to NECA: suitable
[1]
  Solubility in Water: >20 mg/mL

## CCN(CC)c1ccc2nc3ccc(N)cc3[n+](-c3ccccc3)c2c1.[Cl-] [Methylene Violet 3Rax]
[1]
  Solubility in Water: 10 mg/mL

## CC1=CC(=C(c2ccc(N)c(C)c2)c2ccc(N)c(C)c2)C=CC1=N.Cl [New Fuchsin]
[1]
  Solubility in Water: 20 mg/mL

## Nc1c(N=Nc2ccc([N+](=O)[O-])cc2)c(S(=O)(=O)[O-])cc2cc(S(=O)(=O)[O-])cc(O)c12.[Na+].[Na+] [Nitro Red]
[1]
  Solubility in Water: 40 mg/mL
20 ligand-receptor pairs
  effect of quencher on responses of peptides and other small organic molecules: little effect

## CCCCC[C@H](O)/C=C/[C@H]1C(=O)C[C@H](O)[C@@H]1C/C=C\CCCC(=O)O [PGD2, Prostaglandin D2]
DP; MDC dye
  EC50: 0.018 nM
  maximal response Fmax/Fb: 4.4
DP; NY & H30602
  EC50: 0.0078 nM
  maximal response Fmax/Fb: 4.2

## CCCCC[C@H](O)/C=C/[C@H]1[C@H](O)CC(=O)[C@@H]1CCCCCCC(=O)O [PGE1, Prostaglandin E1]
[2]
  EC50: 40 nM
  maximal response Fmax/Fb: 5.3

## O=S(=O)([O-])c1cc(O)c(N=Nc2c(O)ccc3ccccc23)c2ccccc12.[Na+] [Palatine Chrome Black 6BN (Calcon)]
[1]
  Solubility in Water: 30 mg/mL

## Cc1cc(-c2ccc(/N=N/c3c(S(=O)(=O)O)cc4cc(S(=O)(=O)O)cc(N)c4c3O)c(C)c2)ccc1/N=N/c1c(S(=O)(=O)O)cc2cc(S(=O)(=O)O)cc(N)c2c1O [Trypan Blue (Fluka), Trypan Blue]
GCGR; FIG. 21
  Effect of quencher on maximal responses to glucagon: did not inhibit maximal responses
  Interference of quencher with response to glucagon stimulation: interfered
GCGR; listed as Trypan blue
  Effect of quencher on glucagon potency: reduced glucagon potency by about one order
GCGR; listed as trypan blue
  Effect of quencher on glucagon potency: significantly reduced glucagon potency
A2B
  Suitability of quencher for assay of adenosine receptor A2B responses to NECA: suitable
[1]
  solubility: ~10 mg/mL (≈ 11.5 mM)

## C=C[C@@]1(C)CC(=O)[C@]2(O)[C@@]3(C)[C@@H](O)CCC(C)(C)[C@@H]3[C@H](O)[C@H](OC(C)=O)[C@@]2(C)O1 [forskolin]
[3]
  increase of fluorescence intensity versus buffer control: 2.8 fold
[3]; n=192
  fluorescence intensity: 5.3±0.5×10^5 RFU
[4]; MDC dye
  EC50: 230 nM
  maximal response Fmax/Fb: 5.3
[4]; NY & H30602
  EC50: 160 nM
  maximal response Fmax/Fb: 5.1

## NCCc1ccc(O)cc1 [tyramine]
Tyramine receptor
  tyramine receptor activation: detectable

## DIAZINE BLACK
GCGR
  Cell response to glucagon in the presence of the quencher dye: abolished

## Direct Violet 51
[1]
  Solubility in Water: 20 mg/mL

## Nitrazine Yellow
GCGR
  Effect of quencher on glucagon potency: Glucagon potency increased
VIP2R
  Effect of quencher on VIP potency: left-shifted by about one order of magnitude; also recorded: increased using nitrazine yellow as a quencher by more than one order
GIPR
  Effect of quencher on GIP potency: left-shifted by about one order of magnitude; also recorded: increased using nitrazine yellow as a quencher by one order
[1]
  Solubility in Water: 20 mg/mL
20 ligand-receptor pairs
  effect of quencher on responses of peptides and other small organic molecules: little effect

## Sulfonazo II
[1]
  Solubility in Water: 40 mg/mL

## α-MSH
MC1R; MDC dye
  maximal response Fmax/Fb: 5
MC1R; TB & H30602
  maximal response Fmax/Fb: 5.1
